Measurements as given in patent publication US20240174723A1, “STAPLED ANTIMICROBIAL PEPTIDES (STAMPS) AND USES THEREOF” (Lytica Therapeutics, Inc., priority 2021, published 2024).
Values after ≈ are worked out from the molar mass of the structure shown. Like-named read-outs stand apart in the source and are kept apart here. Positions of bridges follow the written chain, without caps; N, C: chain ends. Non-standard residues stand in square brackets, D forms with d. Residues, ends and D or L forms follow the SMILES beside them. S5 = C=CCCC[C@](C)(N)C(=O)O; Dap = NC[C@H](N)C(=O)O

Assays:
K. pneumoniae = format: cell-based, Klebsiella pneumoniae
How it was run: (§1)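 MIC by CLSI-adapted microbroth dilution; MHB or MHB II; inoculum 5×10^5 CFU/ml final; 20-24 h, 37 °C; endpoint = no visible growth.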

A. baumannii = format: cell-based, Acinetobacter baumannii
How it was run: as §1

[1] = system: Human Liver Cells (HepG2); assay: in vitro; format: cell-based; conditions: 48 hours
How it was run: (§2)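 Cytotoxicity read by CellTiter-Glo luminescence after 48 h at 37 °C exposure to serially diluted StAMPs or vehicle. HepG2 cells were grown in EMEM plus 10% FBS and given 4 h to attach before dosing; peptides came from a 5 mg/mL aqueous stock.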

S. aureus = format: cell-based, Staphylococcus aureus
How it was run: as §1

P. aeruginosa = format: cell-based, Pseudomonas aeruginosa
How it was run: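 MIC taken as lowest peptide concentration with no visible growth after 20-24 h at 37 °C. Peptide serial dilutions from water stocks met P. aeruginosa inoculum (5×10^5 CFU/ml final) in MHB or MHB II, per a CLSI-adapted microbroth protocol.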

E. coli = format: cell-based, Escherichia coli
How it was run: as §1

in vitro [2] = format: cell-based; conditions: human
How it was run: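 LDH release (absorbance at 490 nm) measured in the media of cells treated with serially diluted StAMPs or vehicle at 37 °C: 90 min for renal RPTEC, 48 h for liver HepG2. Cells were seeded overnight beforehand and media refreshed before dosing.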

in vitro [3] = format: cell-based; conditions: human; remark: listed apart in the source
How it was run: as §2

[4] = Inhibitory Concentration at 50% Cytotoxicity (IC50) Human Liver Cells (HepG2)

SMILES | Minimum Inhibitory Concentration (MIC) K. pneumoniae (K. pneumoniae) [µg/mL] | Minimum Inhibitory Concentration (MIC) A. baumannii (A. baumannii) [µg/mL] | Minimum Inhibitory Concentration (MIC) S. aureus (S. aureus) [µg/mL] | Minimum Inhibitory Concentration (MIC) P. aeruginosa (P. aeruginosa) [µg/mL] | Minimum Inhibitory Concentration (MIC) E. coli (E. coli) [µg/mL] | IC50 at 90 min (in vitro [2]) [µg/mL] | Inhibitory Concentration at 50% Cytotoxicity (IC50) Human Liver Cells (HepG2) [1] [µg/mL] | IC50 at 48 hours (in vitro [3]; [4]) [µg/mL] | IC50 at 90 min (in vitro [2]; 90 minutes of incubation, read-out: Inhibitory Concentration at 50% Cytotoxicity (IC50) Human Renal Proximal Tubule Epithelial Cells (RPTEC)) [µg/mL] | IC50 at 48 hours (in vitro [3]; 48 hours of incubation, read-out: Inhibitory Concentration at 50% Cytotoxicity (IC50) Human Liver Cells (HepG2)) [µg/mL]
CC(C)[C@@H]1NC(=O)[C@H](C(C)C)NC(=O)[C@@](C)(NC(=O)[C@H](C)NC(=O)[C@H](CCCCN)NC(=O)CNC(=O)[C@H](Cc2ccccc2)NC(=O)[C@H](CCCCN)NC(=O)[C@H](CCCCN)NC(=O)[C@H](CCCCN)NC(=O)[C@H](CO)NC(=O)[C@H](Cc2c[nH]cn2)NC(=O)[C@]2(C)CCCC=CCCC[C@](C)(NC(=O)CN)C(=O)NCC(=O)N[C@@H](CCCCN)C(=O)N[C@@H](Cc3ccccc3)C(=O)N2)CCCC=CCCC[C@@](C)(C(=O)N[C@@H](C)C(=O)N[C@@H](CCCCN)C(=O)N[C@@H](CCCCN)C(N)=O)NC(=O)[C@H](CCC(=O)O)NC1=O [compound 11] (H-G[S5]GKF[S5]HSKKKFGKA[S5]VVE[S5]AKK-NH2; staple 2-6, 16-20) | 7 | 2 | >64 | 6 | 2 | 203 (≈ 78.9 µM) |  | 227 (≈ 88.2 µM) |  | 
CC(C)[C@@H]1NC(=O)[C@@](C)(NC(=O)[C@H](C)NC(=O)[C@H](CCCCN)NC(=O)CNC(=O)[C@H](Cc2ccccc2)NC(=O)[C@H](CCCCN)NC(=O)[C@H](CCCCN)NC(=O)[C@H](CCCCN)NC(=O)[C@H](CCCCN)NC(=O)[C@H](CCCCN)NC(=O)[C@]2(C)CCCC=CCCC[C@](C)(NC(=O)CN)C(=O)NCC(=O)N[C@@H](CCCCN)C(=O)N[C@@H](Cc3ccccc3)C(=O)N2)CCCC=CCCC[C@@](C)(C(=O)N[C@@H](C)C(=O)N[C@@H](CCCCN)C(=O)N[C@@H](CCCCN)C(=O)NCC(=O)NCC(=O)N[C@@H](CCC(=O)O)C(N)=O)NC(=O)[C@H](CCC(=O)O)NC(=O)[C@H](Cc2ccccc2)NC1=O [compound 33] (H-G[S5]GKF[S5]KKKKKFGKA[S5]VFE[S5]AKKGGE-NH2; staple 2-6, 16-20) | 4 | 2 | >64 | 4 | 2 |  |  |  | ~200 (≈ 69 µM) | > 200
CC(C)[C@@H]1NC(=O)[C@@](C)(NC(=O)[C@H](Cc2c[nH]c3ccccc23)NC(=O)[C@H](CCCCN)NC(=O)CNC(=O)[C@H](Cc2ccccc2)NC(=O)[C@H](CCCCN)NC(=O)[C@H](CCCCN)NC(=O)[C@H](CCCCN)NC(=O)[C@H](CO)NC(=O)[C@H](Cc2c[nH]cn2)NC(=O)[C@]2(C)CCCC=CCCC[C@](C)(NC(=O)CN)C(=O)NCC(=O)N[C@@H](CCCCN)C(=O)N[C@@H](Cc3ccccc3)C(=O)N2)CCCC=CCCC[C@@](C)(C(=O)N[C@@H](C)C(=O)N[C@@H](CCCCN)C(=O)N[C@@H](CCCCN)C(N)=O)NC(=O)[C@H](CCC(=O)O)NC(=O)CNC1=O [compound 63] (H-G[S5]GKF[S5]HSKKKFGKW[S5]VGE[S5]AKK-NH2; staple 2-6, 16-20) | 8 | 4 | 16 | 6 | 4 | 32 (≈ 12.1 µM) |  | 60 (≈ 22.7 µM) |  | 
CC(C)[C@@H]1NC(=O)[C@H](C(C)C)NC(=O)[C@@](C)(NC(=O)[C@H](C)NC(=O)[C@H](CCCCN)NC(=O)CNC(=O)[C@H](Cc2ccccc2)NC(=O)[C@H](CCCCN)NC(=O)[C@H](CCCCN)NC(=O)[C@H](CCCCN)NC(=O)[C@H](CO)NC(=O)[C@H](CCCCN)NC(=O)[C@]2(C)CCCC=CCCC[C@](C)(NC(=O)CN)C(=O)NCC(=O)N[C@@H](CCCCN)C(=O)N[C@@H](Cc3ccccc3)C(=O)N2)CCCC=CCCC[C@@](C)(C(=O)N[C@@H](C)C(=O)N[C@@H](CCCCN)C(=O)N[C@@H](CCCCN)C(N)=O)NC(=O)[C@H](CCC(=O)O)NC1=O [compound 19] (H-G[S5]GKF[S5]KSKKKFGKA[S5]VVE[S5]AKK-NH2; staple 2-6, 16-20) | 4 | 2 | >64 | 4 | 2 | 92 (≈ 35.9 µM) |  | 95 (≈ 37 µM) |  | 
CC(C)[C@@H]1NC(=O)[C@@](C)(NC(=O)[C@H](C)NC(=O)[C@H](CCCCN)NC(=O)CNC(=O)[C@H](Cc2ccccc2)NC(=O)[C@H](CCCCN)NC(=O)[C@H](CCCCN)NC(=O)[C@H](CCCCN)NC(=O)[C@H](CCCCN)NC(=O)[C@H](CCCCN)NC(=O)[C@]2(C)CCCC=CCCC[C@](C)(NC(=O)CN)C(=O)NCC(=O)N[C@@H](CCCCN)C(=O)N[C@@H](Cc3ccccc3)C(=O)N2)CCCC=CCCC[C@@](C)(C(=O)N[C@@H](C)C(=O)N[C@@H](CCCCN)C(=O)N[C@@H](CCCCN)C(N)=O)NC(=O)[C@H](CCC(=O)O)NC(=O)CNC1=O [compound 4] (H-G[S5]GKF[S5]KKKKKFGKA[S5]VGE[S5]AKK-NH2; staple 2-6, 16-20) | 6 | 3 | >64 | 3 | 2 | 105 (≈ 40.9 µM) |  | 127 (≈ 49.5 µM) |  | 

The next lines start with results.

Minimum Inhibitory Concentration (MIC) K. pneumoniae (K. pneumoniae) [µg/mL] | Minimum Inhibitory Concentration (MIC) A. baumannii (A. baumannii) [µg/mL] | Minimum Inhibitory Concentration (MIC) S. aureus (S. aureus) [µg/mL] | Minimum Inhibitory Concentration (MIC) P. aeruginosa (P. aeruginosa) [µg/mL] | Minimum Inhibitory Concentration (MIC) E. coli (E. coli) [µg/mL] | IC50 at 90 min (in vitro [2]) [µg/mL] | SMILES | Inhibitory Concentration at 50% Cytotoxicity (IC50) Human Liver Cells (HepG2) [1] [µg/mL] | IC50 at 48 hours (in vitro [3]; [4]) [µg/mL] | IC50 at 90 min (in vitro [2]; 90 minutes of incubation, read-out: Inhibitory Concentration at 50% Cytotoxicity (IC50) Human Renal Proximal Tubule Epithelial Cells (RPTEC)) [µg/mL] | IC50 at 48 hours (in vitro [3]; 48 hours of incubation, read-out: Inhibitory Concentration at 50% Cytotoxicity (IC50) Human Liver Cells (HepG2)) [µg/mL]
8 | 0.5 | >64 | 1 | 1 |  | CC(C)[C@@H]1NC(=O)[C@@](C)(NC(=O)[C@H](C)NC(=O)[C@H](CCCCN)NC(=O)CNC(=O)[C@H](Cc2ccccc2)NC(=O)[C@H](CCCCN)NC(=O)[C@H](CCCCN)NC(=O)[C@H](CCCCN)NC(=O)[C@H](CCCCN)NC(=O)[C@H](CCN)NC(=O)[C@]2(C)CCCC=CCCC[C@](C)(NC(=O)CN)C(=O)NCC(=O)N[C@@H](CCCCN)C(=O)N[C@@H](Cc3ccccc3)C(=O)N2)CCCC=CCCC[C@@](C)(C(=O)N[C@@H](C)C(=O)N[C@@H](CCCCN)C(=O)N[C@@H](CCCCN)C(N)=O)NC(=O)[C@H](CCC(=O)O)NC(=O)CNC1=O (single isomer, unassigned) [compound 79] | 113 |  |  | 
16 | 16 | 64 | 16 | 1 | > 200 | CC(C)[C@@H]1NC(=O)[C@@](C)(NC(=O)[C@H](C)NC(=O)[C@H](CN)NC(=O)CNC(=O)[C@H](Cc2ccccc2)NC(=O)[C@H](CN)NC(=O)[C@H](CN)NC(=O)[C@H](CN)NC(=O)[C@H](CN)NC(=O)[C@H](CN)NC(=O)[C@]2(C)CCCC=CCCC[C@](C)(NC(=O)CN)C(=O)NCC(=O)N[C@@H](CN)C(=O)N[C@@H](Cc3ccccc3)C(=O)N2)CCCC=CCCC[C@@](C)(C(=O)N[C@@H](C)C(=O)N[C@@H](CN)C(=O)N[C@@H](CN)C(=O)NCC(N)=O)NC(=O)[C@H](CCC(=O)O)NC(=O)CNC1=O [compound 76] (H-G[S5]G[Dap]F[S5][Dap][Dap][Dap][Dap][Dap]FG[Dap]A[S5]VGE[S5]A[Dap][Dap]G-NH2; staple 2-6, 16-20) |  | > 200 |  | 
32 | 4 | 16 | 8 | 4 | > 200 | C[C@H](NC(=O)[C@H](CCCCN)NC(=O)CNC(=O)[C@H](Cc1ccccc1)NC(=O)[C@H](CCCCN)NC(=O)[C@H](CCCCN)NC(=O)[C@H](CCCCN)NC(=O)[C@H](CO)NC(=O)[C@H](Cc1c[nH]cn1)NC(=O)[C@]1(C)CCCC=CCCC[C@](C)(NC(=O)CN)C(=O)NCC(=O)N[C@@H](CCCCN)C(=O)N[C@@H](Cc2ccccc2)C(=O)N1)C(=O)N[C@@]1(C)CCCC=CCCC[C@@](C)(C(=O)N[C@@H](C)C(=O)N[C@@H](CCCCN)C(=O)N[C@@H](CCCCN)C(N)=O)NC(=O)[C@H](CCC(=O)O)NC(=O)CNC(=O)[C@H](Cc2c[nH]c3ccccc23)NC1=O [compound 64] (H-G[S5]GKF[S5]HSKKKFGKA[S5]WGE[S5]AKK-NH2; staple 2-6, 16-20) |  | > 200 |  | 
